Source: article PMC10459693, “Toward Stability Enhancement of NTS1R-Targeted Radioligands: Structural Interventions on [^99mTc]Tc-DT1” (Pharmaceutics, 2023)
Read-outs that look alike come from different tables or passages of the source. Peptide text beside a SMILES is read from it. * marks the point of attachment. Palmitoyl = CCCCCCCCCCCCCCCC(=O)*; X1 = NCCNCC(CNCCN)C(=O)*

Legend:
[1] = Radioligand metabolic stability in peripheral mouse blood (radio-HPLC); assay type: in vivo, mice; conditions: peripheral mouse blood 5 min pi
Description: For the assessment of in vivo stability of [^99mTc]Tc-DT7/8/9, healthy Swiss Albino mice (33 animals, >8 weeks of age, body weight: 30 ± 5 g) were obtained from NCSR “Demokritos” Animal House (Athens, Greece). Animals were injected through the tail vein with the radioligand (100 μL, 2 nmol in vehicle: PBS/EtOH 9/1 v/v, with the addition of 0.1% Tween-80 in the case of [^99mTc]Tc-DT9) plus vehicle (100 μL; controls) or plus Lis (100 μg in 100 μL vehicle; Lis). Additional mice groups received per os a suspension of Entresto® (200 μL, 12 mg, 30 min prior to the i.v. injection of the radioligand plus vehicle—Entresto® group; or the i.v. injection of the radioligand plus Lis—Entresto®+Lis group). Animals were euthanized 5 min post injection (pi), and blood samples were drawn from the heart via a prechilled insulin syringe and transferred rapidly into pre-cooled 1.5 mL LoBind Eppendorf tubes containing EDTA (20 μL, 0.1 mM EDTA), and the collected radioactivity was measured in a dose calibrator (CURIEMENTOR 4, PTW Freiburg-GmbH; Freiburg, Germany). The tubes were centrifuged for 10 min at 2000× g at 4 °C in a Hettich Universal 320 R centrifuge (Tuttlingen, Germany). The plasma was collected, diluted in a 1:1 v/v ratio with MeCN, and thoroughly mixed; sample tubes were again centrifuged for 10 min at 15000× g at 4 °C. The supernatant was collected and the volume reduced to 50–100 μL under a gentle flux of N2 and mild heating at 60 °C. […] Sample activity was measured in the dose calibrator, and aliquots were analyzed by radio-HPLC on a Symmetry Shield RP18 cartridge column (5 μm, 3.9 mm × 20 mm; Waters, Eschborn, Germany) eluted at a flow rate of 1 mL/min with the linear gradient (system 2): from 100% A/0% B to 60% A/40% B in 40 min (A: 0.1% aqueous TFA; B: MeCN). […] The tR of intact [^99mTc]Tc-DT7, [^99mTc]Tc-DT8, or [^99mTc]Tc-DT9 was determined by co-injection of blood samples processed as above with an aliquot of the labeling solution. […]

[2] = Biodistribution in SCID mice bearing AsPC-1 xenografts; assay type: in vivo; conditions: male, mouse, iv, total radioactivity; for tissue uptake at 4 h: 4 h pi; for tissue uptake at 24 h: 24 h pi
Description: Twenty male severe combined immunodeficiency (SCID) mice (23.1 ± 1.6 g body weight, six weeks of age on arrival day; NCSR “Demokritos” Animal House, Athens, Greece) were used in the biodistribution experiments. Animals were subcutaneously inoculated in their right flanks with a sterile suspension of freshly harvested AsPC-1 cells (150 μL, 5 × 10^6 cells/animal), and 3–4 weeks later, they developed well-palpable tumors at the implantation sites. During this period, mice were housed in suitable facilities under sterile conditions with 12 h day/night cycles and were provided with sterilized chow food and drinking water ad libitum. At the date of the experiment, animals were randomly divided in groups of four and received through the tail vein a bolus of [^99mTc]Tc-DT9 (100 μL, 3 pmol in vehicle: PBS/EtOH 9/1 v/v with the addition of 0.1% Tween-80) plus vehicle (100 μL; controls at 4 and 24 h pi) or plus Lis (100 μg in 100 μL vehicle); the latter groups had additionally received per os 30 min in advance Entresto® (200 μL, 12 mg; Entresto®+Lis groups at 4 and 24 h pi). A further 4 h group of animals was treated with Entresto®, and 30 min later, mice were co-injected with excess NT and Lis (100 μg NT and 100 μg Lis in 100 μL vehicle—NTS1R block). At the predetermined time intervals, mice were euthanized and weighted, and their blood, organs, and tissue samples of choice as well as the implanted tumors were collected and weighted. Sample radioactivity was measured on the γ-counter together with proper standards of the injected dose. Results were calculated as percentage of injected activity per gram tissue (%IA/g) and provided as mean %IA/g values ± sd. For comparisons, a two-way ANOVA with Tukey’s post hoc analysis was adopted (PRISM^TM 6.0 GraphPad Software, San Diego, CA, USA). p-values < 0.05 were considered statistically significant.

[3] = AsPC-1 tumor, 3 pmol, Controls, read-out: uptake in AsPC-1 Tumor
[4] = AsPC-1 tumor, Entresto+Lis, read-out: uptake in AsPC-1 Tumor
[5] = blood, 3 pmol, Controls, read-out: uptake in Blood
[6] = blood, Entresto+Lis, read-out: uptake in Blood
[7] = heart, 3 pmol, Controls, read-out: uptake in Heart
[8] = heart, Entresto+Lis, read-out: uptake in Heart
[9] = intestines, 3 pmol, Controls, read-out: uptake in Intestines
[10] = intestines, Entresto+Lis, read-out: uptake in Intestines
[11] = kidneys, 3 pmol, Controls, read-out: uptake in Kidneys
[12] = kidneys, Entresto+Lis, read-out: uptake in Kidneys
[13] = liver, 3 pmol, Controls, read-out: uptake in Liver
[14] = liver, Entresto+Lis, read-out: uptake in Liver
[15] = lungs, 3 pmol, Controls, read-out: uptake in Lungs
[16] = lungs, Entresto+Lis, read-out: uptake in Lungs
[17] = muscle, 3 pmol, Controls, read-out: uptake in Muscle
[18] = muscle, Entresto+Lis, read-out: uptake in Muscle
[19] = pancreas, 3 pmol, Controls, read-out: uptake in Pancreas
[20] = pancreas, Entresto+Lis, read-out: uptake in Pancreas
[21] = spleen, 3 pmol, Controls, read-out: uptake in Spleen
[22] = spleen, Entresto+Lis, read-out: uptake in Spleen
[23] = stomach, 3 pmol, Controls, read-out: uptake in Stomach
[24] = stomach, Entresto+Lis, read-out: uptake in Stomach

CCCCCCCCCCCCCCCC(=O)NCCCC[C@H](NC(=O)C(CNCCN)CNCCN)C(=O)N[C@@H](CCCNC(=N)N)C(=O)N[C@@H](CCCNC(=N)N)C(=O)N1CCC[C@H]1C(=O)N[C@@H](Cc1ccc(O)cc1)C(=O)N[C@H](C(=O)N[C@@H](CC(C)C)C(=O)O)[C@@H](C)CC [[^99mTc]Tc-DT9, metal not drawn] (X1-K(Palmitoyl)RRPYIL-OH)
intact radioligand ([1]; Control): 98.06 ± 1.18 (n = 3) % | intact radioligand ([1]; Entresto): 97.33 ± 1.7 (n = 3) % | intact radioligand ([1]; Entresto+Lis): 93.72 ± 3.7 (n = 3) % | tissue uptake at 4 h [2, 3]: 6.15 ± 0.92 %ID/g | tissue uptake at 24 h [2, 3]: 3.32 ± 0.35 %ID/g | tissue uptake at 4 h ([2]; AsPC-1 tumor, Block (Entresto+Lis plus excess NT), read-out: uptake in AsPC-1 Tumor): 3.68 ± 0.92 %ID/g | tissue uptake at 4 h [2, 4]: 5.24 ± 0.27 %ID/g | tissue uptake at 24 h [2, 4]: 2.84 ± 0.43 %ID/g | tissue uptake at 4 h [2, 5]: 4.63 ± 0.55 %ID/g | tissue uptake at 4 h ([2]; blood, 3 pmol, all animal groups, read-out: radioactivity levels in the blood): > 4 %ID/g | tissue uptake at 24 h [2, 5]: 0.68 ± 0.18 %ID/g | tissue uptake at 4 h ([2]; blood, Block (Entresto+Lis plus excess NT), read-out: uptake in Blood): 4.25 ± 0.37 %ID/g | tissue uptake at 4 h [2, 6]: 4.32 ± 0.42 %ID/g | tissue uptake at 24 h [2, 6]: 0.7 ± 0.06 %ID/g | tissue uptake at 4 h [2, 7]: 3.12 ± 0.43 %ID/g | tissue uptake at 24 h [2, 7]: 0.64 ± 0.11 %ID/g | tissue uptake at 4 h ([2]; heart, Block (Entresto+Lis plus excess NT), read-out: uptake in Heart): 2.79 ± 0.47 %ID/g | tissue uptake at 4 h [2, 8]: 2.85 ± 2.48 %ID/g | tissue uptake at 24 h [2, 8]: 0.71 ± 0.06 %ID/g | tissue uptake at 4 h [2, 9]: 13 ± 4.6 %ID/g | tissue uptake at 24 h [2, 9]: 4.26 ± 0.61 %ID/g | tissue uptake at 4 h ([2]; intestines, Block (Entresto+Lis plus excess NT), read-out: uptake in Intestines): 6.27 ± 0.72 %ID/g | tissue uptake at 4 h [2, 10]: 7.9 ± 0.88 %ID/g | tissue uptake at 24 h [2, 10]: 5.37 ± 1.61 %ID/g | tissue uptake at 4 h [2, 11]: 9.53 ± 1.18 %ID/g | tissue uptake at 24 h [2, 11]: 3.81 ± 0.54 %ID/g | tissue uptake at 4 h ([2]; kidneys, Block (Entresto+Lis plus excess NT), read-out: uptake in Kidneys): 8.56 ± 0.87 %ID/g | tissue uptake at 4 h [2, 12]: 9.15 ± 0.62 %ID/g | tissue uptake at 24 h [2, 12]: 4.63 ± 0.15 %ID/g | tissue uptake at 4 h [2, 13]: 29.6 ± 3.77 %ID/g | tissue uptake at 24 h [2, 13]: 12.9 ± 1.66 %ID/g | tissue uptake at 4 h ([2]; liver, Block (Entresto+Lis plus excess NT), read-out: uptake in Liver): 30.9 ± 4.25 %ID/g | tissue uptake at 4 h [2, 14]: 28.4 ± 2.48 %ID/g | tissue uptake at 24 h [2, 14]: 17 ± 0.94 %ID/g | tissue uptake at 4 h [2, 15]: 8.8 ± 1.42 %ID/g | tissue uptake at 24 h [2, 15]: 3.42 ± 0.67 %ID/g | tissue uptake at 4 h ([2]; lungs, Block (Entresto+Lis plus excess NT), read-out: uptake in Lungs): 8.46 ± 1.26 %ID/g | tissue uptake at 4 h [2, 16]: 7.61 ± 0.64 %ID/g | tissue uptake at 24 h [2, 16]: 3.62 ± 0.94 %ID/g | tissue uptake at 4 h [2, 17]: 0.93 ± 0.13 %ID/g | tissue uptake at 24 h [2, 17]: 0.22 ± 0.02 %ID/g | tissue uptake at 4 h ([2]; muscle, Block (Entresto+Lis plus excess NT), read-out: uptake in Muscle): 0.82 ± 0.11 %ID/g | tissue uptake at 4 h [2, 18]: 0.81 ± 0.04 %ID/g | tissue uptake at 24 h [2, 18]: 0.24 ± 0.01 %ID/g | tissue uptake at 4 h [2, 19]: 2.1 ± 0.3 %ID/g | tissue uptake at 24 h [2, 19]: 0.75 ± 0.17 %ID/g | tissue uptake at 4 h ([2]; pancreas, Block (Entresto+Lis plus excess NT), read-out: uptake in Pancreas): 1.84 ± 0.41 %ID/g | tissue uptake at 4 h [2, 20]: 1.85 ± 0.18 %ID/g | tissue uptake at 24 h [2, 20]: 0.8 ± 0.07 %ID/g | tissue uptake at 4 h [2, 21]: 6.82 ± 1.11 %ID/g | tissue uptake at 24 h [2, 21]: 3.42 ± 0.54 %ID/g | tissue uptake at 4 h ([2]; spleen, Block (Entresto+Lis plus excess NT), read-out: uptake in Spleen): 6.18 ± 1.37 %ID/g | tissue uptake at 4 h [2, 22]: 5.47 ± 0.47 %ID/g | tissue uptake at 24 h [2, 22]: 4.47 ± 0.83 %ID/g | tissue uptake at 4 h [2, 23]: 3.09 ± 1.06 %ID/g | tissue uptake at 24 h [2, 23]: 1.73 ± 0.5 %ID/g | tissue uptake at 4 h ([2]; stomach, Block (Entresto+Lis plus excess NT), read-out: uptake in Stomach): 2.06 ± 0.47 %ID/g | tissue uptake at 4 h [2, 24]: 2.27 ± 0.38 %ID/g | tissue uptake at 24 h [2, 24]: 1.56 ± 0.31 %ID/g
